Data on 1 molecule can be found in article PMC5483439, “The Effect of Pungent and Tingling Compounds from Piper nigrum L. on Background K^+ Currents” (Frontiers in Pharmacology, 2017).

In assay [1] the test system is mouse trigeminal neurons. Briefly: Calcium imaging on primary cultured mouse trigeminal neurons. It counts as cell-based. The protocol: Trigeminal ganglia neurons were isolated from Swiss CD-1 mice (Charles River Laboratories, Sulzfeld, Germany). All experiments involving animals were carried out in accordance with the European Union Community Council’s guidelines and approved by the competent state office of the Federal Land of Northrhine Westphalia (file number 87-51.04.2010.A180). At postnatal day 2–5, the mice were sacrificed by decapitation. The brain was removed, and both trigeminal ganglia were excised. The ganglia were washed in PBS+/+ (Invitrogen, Karlsruhe, Germany) and collected in Leibovitz Medium (L15, Invitrogen) on ice. The ganglia were transferred to Dulbecco’s modified essential medium (DMEM) containing 0.025% collagenase (type IA, Sigma–Aldrich). The minced ganglia were incubated for 45 min in a humidified atmosphere (37°C, 95% humidity, 6% CO2) before trituration. The cell suspension was centrifuged at 1000 rpm for 4 min at room temperature and the pellet was resuspended in F-12 medium (Invitrogen; 31331-D-MEM/F-12, GlutaMax^TM) supplemented with 10% fetal bovine serum (FBS^TM; Invitrogen), 200 U/mL penicillin and 200 U/mL streptomycin. The cell suspension (50 μL) was then plated on poly L-lysine (0.01%) coated glass coverslips (30 mm, Sarstedt, Nümbrecht, Germany), placed in cell culture dishes (35 mm) and kept in a humidified atmosphere (37°C, 95% humidity, 6% CO2) for 1 h. Subsequently, F-12 medium (2 mL) supplemented with FBS (10%), 200 U/mL penicillin and 200 U/mL streptomycin was added to each dish. The cells were kept in an incubator (37°C, 95% humidity, 6% CO2) until use. The trigeminal ganglion neurons were incubated with the Ca^2+-sensitive reporter dye Fura-2/AM (Invitrogen, final concentration: 3 μM) 30–45 min before starting the experiment. […] The emitted light (510 nm) was detected with a 12-bit 1376 × 1032-pixel charge-coupled device camera (F-View II, Olympus), and Cell® imaging software (Olympus). The changes in intracellular calcium levels were calculated as the intensity ratio of f340/f380 [(E(510) at 340 nm illumination)/(E(510) at 380 nm illumination)]. […]

In assay [2] the target is T1, hKCNK3 (Homo sapiens, UniProt O14649).
T1 construct: expressed in transfected cells; host or cells: Xenopus laevis oocytes injected with cRNA (plasmid pIRES-CD8, gift of Dr. Fabrice Duprat)
Further details: method as in Beltrán et al., 2013. As to conditions: hKCNK3 in Xenopus oocytes; ref Beltrán et al., 2013; cited from earlier work.

Assay [3] concerns background current of mouse trigeminal neurons. Description: Whole-cell patch clamp on cultured mouse trigeminal neurons. In kind it is cell-based. As to conditions: 100 μM. The protocol: Trigeminal ganglia neurons were isolated from Swiss CD-1 mice (Charles River Laboratories, Sulzfeld, Germany). All experiments involving animals were carried out in accordance with the European Union Community Council’s guidelines and approved by the competent state office of the Federal Land of Northrhine Westphalia (file number 87-51.04.2010.A180). At postnatal day 2–5, the mice were sacrificed by decapitation. The brain was removed, and both trigeminal ganglia were excised. The ganglia were washed in PBS+/+ (Invitrogen, Karlsruhe, Germany) and collected in Leibovitz Medium (L15, Invitrogen) on ice. The ganglia were transferred to Dulbecco’s modified essential medium (DMEM) containing 0.025% collagenase (type IA, Sigma–Aldrich). The minced ganglia were incubated for 45 min in a humidified atmosphere (37°C, 95% humidity, 6% CO2) before trituration. The cell suspension was centrifuged at 1000 rpm for 4 min at room temperature and the pellet was resuspended in F-12 medium (Invitrogen; 31331-D-MEM/F-12, GlutaMax^TM) supplemented with 10% fetal bovine serum (FBS^TM; Invitrogen), 200 U/mL penicillin and 200 U/mL streptomycin. The cell suspension (50 μL) was then plated on poly L-lysine (0.01%) coated glass coverslips (30 mm, Sarstedt, Nümbrecht, Germany), placed in cell culture dishes (35 mm) and kept in a humidified atmosphere (37°C, 95% humidity, 6% CO2) for 1 h. Subsequently, F-12 medium (2 mL) supplemented with FBS (10%), 200 U/mL penicillin and 200 U/mL streptomycin was added to each dish. The cells were kept in an incubator (37°C, 95% humidity, 6% CO2) until use.
The recordings were performed using the whole-cell configuration of the patch-clamp technique. The cells were maintained in an extracellular recording solution containing 140 mM NaCl, 5 mM KCl, 2 mM MgCl2, 2 mM CaCl2, 10 mM HEPES and 10 mM glucose, pH 7.4. The Ca^2+ and Na^+- free extracellular solution contained: 140 mM NMDG-Cl, 5 mM KCl, 2 mM MgCl2, 5 mM EGTA, 10 mM HEPES, pH 7.4. The patch electrodes were pulled from borosilicate glass (1.2 mm OD × 1.17 mm ID; Harvard apparatus, Edenbridge, Kent, United Kingdom) and fire polished to 2.5–4 MΩ tip resistance using a horizontal pipette puller (Zeitz Instruments, Munich, Germany) to obtain a patch of approximately 1–2 μm diameter. The pipette solution contained 140 mM KCl, 1 mM MgCl2, and 10 mM HEPES, pH 7.4. All recordings were performed at room temperature with an EPC7 amplifier (List-Medical Electronic, Darmstadt, Germany). The capacity and serial resistance were adjusted manually. The substances were applied via a custom-made manifold superfusion device. […] The data were acquired using Pulse software (HEKA, Lambrecht, Germany) and analyzed with PulseFit (HEKA, Lambrecht, Germany). Unless otherwise stated, the data are expressed as the mean ± SEM. […]

T1 sequence (O14649 whole entry): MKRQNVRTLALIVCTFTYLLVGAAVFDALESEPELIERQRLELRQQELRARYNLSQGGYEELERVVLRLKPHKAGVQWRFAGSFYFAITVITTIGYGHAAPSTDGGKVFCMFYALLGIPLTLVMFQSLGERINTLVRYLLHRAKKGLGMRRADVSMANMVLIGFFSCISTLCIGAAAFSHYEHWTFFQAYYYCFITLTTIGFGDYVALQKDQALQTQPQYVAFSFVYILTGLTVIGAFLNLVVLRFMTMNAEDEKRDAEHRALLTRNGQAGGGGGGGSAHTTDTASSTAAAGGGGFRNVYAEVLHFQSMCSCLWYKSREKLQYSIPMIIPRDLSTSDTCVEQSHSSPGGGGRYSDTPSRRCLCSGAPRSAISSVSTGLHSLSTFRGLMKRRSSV

With `O=C(/C=C/C=C/c1ccc2c(c1)OCO2)N1CCCCC1` [1a, piperine], the “trigeminal neurons showing a calcium response” value in assay [1] (100 μM) was 68 out of 619. For the same molecule, the “piperine-responsive neurons still responsive in the presence of TRP antagonists” value in assay [1] (100 μM piperine with capsazepine 5 μM and HC-030031 20 μM, 25 of 37 neurons) is 68%. Besides, the “piperine-responsive neurons also capsaicin-responsive” value in assay [1] (100 μM piperine, 10 μM capsaicin, 35 of 68 neurons) turned out to be 51%. In assay [2], the “% of basal activity after saturating concentrations” value is given as 46 ± 10%. Also, the “membrane potential change in current clamp” value in assay [3] (Na+/Ca2+-free conditions) is recorded as “mild depolarization”. Moreover, the “current inhibition when applied under acidic pH” value in assay [3] (Na+/Ca2+-free solution, with XE-991, acidic pH, p = 0,00012) is listed as “significantly decreased”. Besides, in assay [3] (physiological extracellular solution, 13 of 38 neurons, <30 μm diameter), the “decrease in the background current” value is 19.5 ± 1.8%.
